Measurements as given in patent publication US11337976B2 (Plexxikon Inc., priority 2011, dated 2022).

Tested on: A375 melanoma cells (B-Raf V600E mutation)
Assay: A375 (A375_P-ERK) cell activity / cell growth inhibition assay
Format: cell-based, human
Settings: Homo sapiens, A-375; A375 cells (text: A375_P-ERK)

Row | Structure (SMILES) | IC50 [µM]
1 | O=C(c1c(F)ccc(NS(=O)(=O)N2CCCC2)c1F)c1c[nH]c2ncc(-c3ccnc(N4CCOCC4)c3)cc12 [P-0284, N-[2,4-difluoro-3-[5-(2-morpholino-4-pyridyl)-1H-pyrrolo[2,3-b]pyridine-3-carbonyl]phenyl]pyrrolidine-1-sulfonamide] | < 1
2 | CN1CCN(c2cc(-c3cnc4[nH]cc(C(=O)c5c(F)ccc(NS(=O)(=O)N6CCCC6)c5F)c4c3)ccn2)CC1 [P-0285, N-[2,4-difluoro-3-[5-[2-(4-methylpiperazin-1-yl)-4-pyridyl]-1H-pyrrolo[2,3-b]pyridine-3-carbonyl]phenyl]pyrrolidine-1-sulfonamide] | < 1
3 | COc1cc(-c2cnc3[nH]cc(C(=O)c4c(F)ccc(NS(=O)(=O)N5CCCC5)c4F)c3c2)ccn1 [P-0287, N-[2,4-difluoro-3-[5-(2-methoxy-4-pyridyl)-1H-pyrrolo[2,3-b]pyridine-3-carbonyl]phenyl]pyrrolidine-1-sulfonamide] | < 1
4 | O=C(c1c(F)ccc(NS(=O)(=O)N2CC[C@H](F)C2)c1F)c1c[nH]c2ncc(-c3cnc(C4CC4)nc3)cc12 [P-0289, (3S)—N-[3-[5-(2-cyclopropylpyrimidin-5-yl)-1H-pyrrolo[2,3-b]pyridine-3-carbonyl]-2,4-difluoro-phenyl]-3-fluoro-pyrrolidine-1-sulfonamide] | < 1
5 | O=C(c1c(F)ccc(NS(=O)(=O)N2CCCC2)c1F)c1c[nH]c2ncc(-c3ccnc(C4CC4)c3)cc12 [P-0295, N-[3-[5-(2-cyclopropyl-4-pyridyl)-1H-pyrrolo[2,3-b]pyridine-3-carbonyl]-2,4-difluoro-phenyl]pyrrolidine-1-sulfonamide] | < 1
6 | CCN(C)S(=O)(=O)Nc1ccc(F)c(C(=O)c2c[nH]c3ncc(-c4ccc(-c5nnc(C)o5)cc4)cc23)c1F [P-0304, 2-[4-[3-[3-[[ethyl(methyl)sulfamoyl]amino]-2,6-difluoro-benzoyl]-1H-pyrrolo[2,3-b]pyridin-5-yl]phenyl]-5-methyl-1,3,4-oxadiazole] | < 1
7 | CCN(C)S(=O)(=O)Nc1ccc(F)c(C(=O)c2c[nH]c3ncc(-c4ccc(-c5nnc(NC)s5)cc4)cc23)c1F [P-0305, 2-[4-[3-[3-[[ethyl(methyl)sulfamoyl]amino]-2,6-difluoro-benzoyl]-1H-pyrrolo[2,3-b]pyridin-5-yl]phenyl]-5-(methylamino)-1,3,4-thiadiazole] | < 1
8 | CCN(C)S(=O)(=O)Nc1ccc(F)c(C(=O)c2c[nH]c3ncc(-c4cncc(C(C)(C)O)c4)cc23)c1F [P-0306, 3-[3-[[ethyl(methyl)sulfamoyl]amino]-2,6-difluoro-benzoyl]-5-[5-(1-hydroxy-1-methyl-ethyl)-3-pyridyl]-1H-pyrrolo[2,3-b]pyridine] | > 1
9 | CCN(C)S(=O)(=O)Nc1ccc(F)c(C(=O)c2c[nH]c3ncc(-c4ccc(C(C)(C)O)nc4)cc23)c1F [P-0307, 3-[3-[[ethyl(methyl)sulfamoyl]amino]-2,6-difluoro-benzoyl]-5-[6-(1-hydroxy-1-methyl-ethyl)-3-pyridyl]-1H-pyrrolo[2,3-b]pyridine] | < 1
10 | CCN(CC)c1ccc(-c2cnc3[nH]cc(C(=O)c4c(F)ccc(NS(=O)(=O)N(C)CC)c4F)c3c2)cc1 [P-0308, 5-[4-(diethylamino)phenyl]-3-[3-[[ethyl(methyl)sulfamoyl]amino]-2,6-difluoro-benzoyl]-1H-pyrrolo[2,3-b]pyridine] | < 1
11 | CCN(C)S(=O)(=O)Nc1ccc(F)c(C(=O)c2c[nH]c3ncc(-c4ccc(-c5noc(C)n5)s4)cc23)c1F [P-0310, 3-[5-[3-[3-[[ethyl(methyl)sulfamoyl]amino]-2,6-difluoro-benzoyl]-1H-pyrrolo[2,3-b]pyridin-5-yl]-2-thienyl]-5-methyl-1,2,4-oxadiazole] | < 1
12 | CCN(C)S(=O)(=O)Nc1ccc(F)c(C(=O)c2c[nH]c3ncc(-c4ccc5nc(N)ncc5c4)cc23)c1F [P-0311, 2-amino-6-[3-[3-[[ethyl(methyl)sulfamoyl]amino]-2,6-difluoro-benzoyl]-1H-pyrrolo[2,3-b]pyridin-5-yl]quinazoline] | < 1
13 | CCN(C)S(=O)(=O)Nc1ccc(F)c(C(=O)c2c[nH]c3ncc(-c4ccc5nc(N(C)C)ncc5c4)cc23)c1F [P-0313, 2-(dimethylamino)-6-[3-[3-[[ethyl(methyl)sulfamoyl]amino]-2,6-difluoro-benzoyl]-1H-pyrrolo[2,3-b]pyridin-5-yl]quinazoline] | < 1
14 | O=C(c1c(F)ccc(NS(=O)(=O)N2CCCC2)c1F)c1c[nH]c2ncc(-c3cc(N4CCOCC4)ncn3)cc12 [P-0318, N-[2,4-difluoro-3-[5-(6-morpholinopyrimidin-4-yl)-1H-pyrrolo[2,3-b]pyridine-3-carbonyl]phenyl]pyrrolidine-1-sulfonamide] | < 1
15 | O=C(c1cccc(NS(=O)(=O)N2CCCC2)c1F)c1c[nH]c2ncc(-c3cc(N4CCOCC4)ncn3)cc12 [P-0321, N-[2-fluoro-3-[5-(6-morpholinopyrimidin-4-yl)-1H-pyrrolo[2,3-b]pyridine-3-carbonyl]phenyl]pyrrolidine-1-sulfonamide] | < 1
16 | CN1CCN(c2cc(-c3cnc4[nH]cc(C(=O)c5cccc(NS(=O)(=O)N6CCCC6)c5F)c4c3)ncn2)CC1 [P-0322, N-[2-fluoro-3-[5-[6-(4-methylpiperazin-1-yl)pyrimidin-4-yl]-1H-pyrrolo[2,3-b]pyridine-3-carbonyl]phenyl]pyrrolidine-1-sulfonamide] | < 1
17 | CN1CCN(c2cccc(-c3cnc4[nH]cc(C(=O)c5cccc(NS(=O)(=O)N6CCCC6)c5F)c4c3)n2)CC1 [P-0324, N-[2-fluoro-3-[5-[6-(4-methylpiperazin-1-yl)-2-pyridyl]-1H-pyrrolo[2,3-b]pyridine-3-carbonyl]phenyl]pyrrolidine-1-sulfonamide] | < 1

Now from value to molecule:

Row | IC50 [µM] | Structure (SMILES)
18 | > 1 | CCN(C)S(=O)(=O)Nc1ccc(F)c(C(=O)c2c[nH]c3ncc(-c4ccnc(F)c4)cc23)c1F [P-0283, 3-[3-[[ethyl(methyl)sulfamoyl]amino]-2,6-difluoro-benzoyl]-5-(2-fluoro-4-pyridyl)-1H-pyrrolo[2,3-b]pyridine]
19 | < 1 | CCN(C)S(=O)(=O)Nc1ccc(F)c(C(=O)c2c[nH]c3ncc(-c4cnc(N(C)C)nc4)cc23)c1F [P-0292, 5-[2-(dimethylamino)pyrimidin-5-yl]-3-[3-[[ethyl(methyl)sulfamoyl]amino]-2,6-difluoro-benzoyl]-1H-pyrrolo[2,3-b]pyridine]
20 | < 1 | CCN(C)S(=O)(=O)Nc1ccc(F)c(C(=O)c2c[nH]c3ncc(-c4cnc(N5CCCC5)nc4)cc23)c1F [P-0293, 3-[3-[[ethyl(methyl)sulfamoyl]amino]-2,6-difluoro-benzoyl]-5-(2-pyrrolidin-1-ylpyrimidin-5-yl)-1H-pyrrolo[2,3-b]pyridine]
21 | > 1 | CCN(C)S(=O)(=O)Nc1cccc(C(=O)c2c[nH]c3ncc(C4CCC4)cc23)c1F [P-0297, 5-cyclobutyl-3-[3-[[ethyl(methyl)sulfamoyl]amino]-2-fluoro-benzoyl]-1H-pyrrolo[2,3-b]pyridine]
22 | > 1 | CCN(C)S(=O)(=O)Nc1cccc(C(=O)c2c[nH]c3ncc(C4CC4)cc23)c1F [P-0298, 5-cyclopropyl-3-[3-[[ethyl(methyl)sulfamoyl]amino]-2-fluoro-benzoyl]-1H-pyrrolo[2,3-b]pyridine]
23 | > 1 | Nc1cc(-c2cnc3[nH]cc(C(=O)c4cccc(NS(=O)(=O)N5CCCC5)c4F)c3c2)ncn1 [P-0299, N-[3-[5-(6-aminopyrimidin-4-yl)-1H-pyrrolo[2,3-b]pyridine-3-carbonyl]-2-fluoro-phenyl]pyrrolidine-1-sulfonamide]
24 | < 1 | CCN(C)S(=O)(=O)Nc1ccc(F)c(C(=O)c2c[nH]c3ncc(-c4ccc(C(F)(F)F)cc4)cc23)c1F [P-0301, 3-[3-[[ethyl(methyl)sulfamoyl]amino]-2,6-difluoro-benzoyl]-5-[4-(trifluoromethyl)phenyl]-1H-pyrrolo[2,3-b]pyridine]
25 | > 1 | CCN(C)S(=O)(=O)Nc1ccc(F)c(C(=O)c2c[nH]c3ncc(-c4ccc(N5CCCC5)cc4)cc23)c1F [P-0303, 3-[3-[[ethyl(methyl)sulfamoyl]amino]-2,6-difluoro-benzoyl]-5-(4-pyrrolidin-1-ylphenyl)-1H-pyrrolo[2,3-b]pyridine]
26 | < 1 | CCN(C)S(=O)(=O)Nc1ccc(F)c(C(=O)c2c[nH]c3ncc(-c4ccc5c(c4)NC(=O)C5)cc23)c1F [P-0309, 3-[3-[[ethyl(methyl)sulfamoyl]amino]-2,6-difluoro-benzoyl]-5-(2-oxoindolin-6-yl)-1H-pyrrolo[2,3-b]pyridine]
27 | < 1 | CCN(C)S(=O)(=O)Nc1ccc(F)c(C(=O)c2c[nH]c3ncc(-c4ccc(C5(O)CC5)cc4)cc23)c1F [P-0314, 3-[3-[[ethyl(methyl)sulfamoyl]amino]-2,6-difluoro-benzoyl]-5-[4-(1-hydroxycyclopropyl)phenyl]-1H-pyrrolo[2,3-b]pyridine]
28 | < 1 | CCN(C)S(=O)(=O)Nc1ccc(F)c(C(=O)c2c[nH]c3ncc(-c4cncs4)cc23)c1F [P-0315, 5-[3-[3-[[ethyl(methyl)sulfamoyl]amino]-2,6-difluoro-benzoyl]-1H-pyrrolo[2,3-b]pyridin-5-yl]thiazole]
29 | < 1 | CCN(C)S(=O)(=O)Nc1ccc(F)c(C(=O)c2c[nH]c3ncc(-c4csc(C(C)(C)O)n4)cc23)c1F [P-0316, 4-[3-[3-[[ethyl(methyl)sulfamoyl]amino]-2,6-difluoro-benzoyl]-1H-pyrrolo[2,3-b]pyridin-5-yl]-2-(1-hydroxy-1-methyl-ethyl)thiazole]
30 | < 1 | CCN(C)S(=O)(=O)Nc1ccc(F)c(C(=O)c2c[nH]c3ncc(-c4ccc(OC)nn4)cc23)c1F [P-0317, 3-[3-[[ethyl(methyl)sulfamoyl]amino]-2,6-difluoro-benzoyl]-5-(6-methoxypyridazin-3-yl)-1H-pyrrolo[2,3-b]pyridine]
31 | < 1 | COc1ccnc(-c2cnc3[nH]cc(C(=O)c4cccc(NS(=O)(=O)N5CCCC5)c4F)c3c2)n1 [P-0325, N-[2-fluoro-3-[5-(4-methoxypyrimidin-2-yl)-1H-pyrrolo[2,3-b]pyridine-3-carbonyl]phenyl]pyrrolidine-1-sulfonamide]
